According to PubChem BioAssay AID330 (DTP/NCI, 2004):
Where “and” joins values, the source holds several entries; their conditions need not be identical. Identical values can stand only once. Inconclusive results and toxic doses are left out.

System: P388 leukemia ip, CD2F1 mice, survival T/C
Assay: NCI In Vivo Anticancer Drug Screen. Data for tumor model P388 Leukemia (intraperitoneal) in CD2F1 (CDF1) mice
Details: endpoint: median survival time, higher = longer survival
How it was run: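 Mice carrying the transplanted tumor received test compound or vehicle. Survival was recorded in each group, and the value is the treated-group measurement divided by that of the vehicle-treated control group.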

[1] = dose: 50.0 mg/kg/injection, schedule: Q01DX005 (ip), vehicle: saline
[2] = dose: 100.0 mg/kg/injection, schedule: Q01DX005 (ip), vehicle: saline
[3] = dose: 50.0 mg/kg/injection, schedule: Q01DX005 (ip), vehicle: Klucel (hydroxypropylcellulose) (HPC)
[4] = dose: 100.0 mg/kg/injection, schedule: Q01DX005 (ip), vehicle: Klucel (hydroxypropylcellulose) (HPC)
[5] = dose: 200.0 mg/kg/injection, schedule: Q01DX005 (ip), vehicle: Klucel (hydroxypropylcellulose) (HPC)
[6] = dose: 60.0 mg/kg/injection, schedule: Q01DX005 (ip), vehicle: Klucel (hydroxypropylcellulose) (HPC)
[7] = dose: 120.0 mg/kg/injection, schedule: Q01DX005 (ip), vehicle: Klucel (hydroxypropylcellulose) (HPC)
[8] = dose: 240.0 mg/kg/injection, schedule: Q01DX005 (ip), vehicle: Klucel (hydroxypropylcellulose) (HPC)
[9] = dose: 12.5 mg/kg/injection, schedule: Q01DX005 (ip), vehicle: saline with Tween-80
[10] = dose: 25.0 mg/kg/injection, schedule: Q01DX005 (ip), vehicle: saline with Tween-80
[11] = dose: 50.0 mg/kg/injection, schedule: Q01DX005 (ip), vehicle: saline with Tween-80
[12] = dose: 50.0 mg/kg/injection, schedule: Q01DX009 (ip), vehicle: Klucel (hydroxypropylcellulose) (HPC)
[13] = dose: 100.0 mg/kg/injection, schedule: Q01DX009 (ip), vehicle: Klucel (hydroxypropylcellulose) (HPC)

SMILES: CC(=O)C1CCN(CN2CCC(C(C)=O)CC2)CC1
- T/C (dose: 25.0 mg/kg/injection, schedule: Q01DX005 (ip), vehicle: saline): 101 % of control
- T/C [1]: 110 % of control
- T/C [2]: 97 % of control

SMILES: Fc1ccccc1C(Nc1nc2ccccc2s1)Nc1nc2ccccc2s1
- T/C [3]: 109 % of control
- T/C [4]: 104 % of control
- T/C [5]: 113 % of control

SMILES: CCOC(=O)c1cnc2cc(C(F)(F)F)ccc2c1Nc1ccc2c(c1)OCO2
- T/C [6]: 100 % of control
- T/C [7]: 102 % of control
- T/C [8]: 98 % of control

SMILES: Cc1nc2[nH]c(=S)[nH]c(=O)c2[nH]c1=O
- T/C (dose: 12.5 mg/kg/injection, schedule: Q01DX009 (ip), vehicle: saline): 97 % of control
- T/C (dose: 25.0 mg/kg/injection, schedule: Q01DX009 (ip), vehicle: saline): 114 % of control
- T/C (dose: 50.0 mg/kg/injection, schedule: Q01DX009 (ip), vehicle: saline): 120 % of control
- T/C (dose: 100.0 mg/kg/injection, schedule: Q01DX009 (ip), vehicle: saline): 120 % of control

SMILES: CCCCC(=O)Oc1cc(=O)n(C)c2cc(C)n(C)c(=O)c12
- T/C [6]: 98 % of control
- T/C [7]: 103 % of control
- T/C [8]: 106 % of control

SMILES: CC(C)NC(=O)N1C2C3CCC(C)(OC3(C)C)C21 (configuration not stated)
- T/C [1]: 108 % of control
- T/C [2]: 101 % of control
- T/C (dose: 200.0 mg/kg/injection, schedule: Q01DX005 (ip), vehicle: saline): 101 % of control

SMILES: Cc1ccc(OP(=O)(Oc2ccc(C)cc2)Oc2ccc(C)cc2)cc1.Cc1ccc(OP(=O)(Oc2ccc(C)cc2)Oc2ccc(C)cc2)cc1.Cc1ccc(OP(=O)(Oc2ccc(C)cc2)Oc2ccc(C)cc2)cc1.Cc1ccc(OP(=O)(Oc2ccc(C)cc2)Oc2ccc(C)cc2)cc1.[Cr+3].[O-][Cl+3]([O-])([O-])O
- T/C (dose: 100.0 mg/kg/injection, schedule: Q01DX001 (ip), vehicle: Klucel (hydroxypropylcellulose) (HPC)): 100 % of control
- T/C (dose: 200.0 mg/kg/injection, schedule: Q01DX001 (ip), vehicle: Klucel (hydroxypropylcellulose) (HPC)): 96 % of control
- T/C (dose: 400.0 mg/kg/injection, schedule: Q01DX001 (ip), vehicle: Klucel (hydroxypropylcellulose) (HPC)): 89 % of control

SMILES: CCOC(=O)c1ccc(=O)n2c1[nH]c1ccccc12
- T/C [9]: 105 % of control
- T/C [10]: 108 % of control
- T/C [11]: 100 % of control and 108 % of control

SMILES: CC(C)(C)C(=O)CC(O)(C(F)(F)Cl)C(F)(F)Cl
- T/C (dose: 50.0 mg/kg/injection, schedule: Q04DX003 (ip), vehicle: saline with Tween-80): 90 % of control
- T/C (dose: 100.0 mg/kg/injection, schedule: Q04DX003 (ip), vehicle: saline with Tween-80): 95 % of control
- T/C (dose: 200.0 mg/kg/injection, schedule: Q04DX003 (ip), vehicle: saline with Tween-80): 105 % of control

SMILES: CCn1c(=O)c2[nH]c(Cl)nc2n(CC(C)Cl)c1=O (configuration not stated)
- T/C (dose: 12.5 mg/kg/injection, schedule: Q01DX009 (ip), vehicle: Klucel (hydroxypropylcellulose) (HPC)): 94 % of control
- T/C (dose: 25.0 mg/kg/injection, schedule: Q01DX009 (ip), vehicle: Klucel (hydroxypropylcellulose) (HPC)): 101 % of control
- T/C [12]: 100 % of control and 103 % of control
- T/C [13]: 104 % of control

SMILES: COC1=C(OC)S[C@H]2[C@@H]3C[C@@H]([C@H]4CC=C[C@@H]34)[C@H]2S1
- T/C [3]: 100 % of control
- T/C [4]: 103 % of control
- T/C [5]: 97 % of control

SMILES: Cc1cc(N(CCCl)CCCl)ccc1C=Nc1ccccc1C(=O)O
- T/C (dose: 25.0 mg/kg/injection, schedule: Q01DX009 (ip), vehicle: saline with Tween-80): 117 % of control
- T/C (dose: 50.0 mg/kg/injection, schedule: Q01DX009 (ip), vehicle: saline with Tween-80): 115 % of control
- T/C (dose: 200.0 mg/kg/injection, schedule: Q01DX009 (ip), vehicle: saline with Tween-80): 150 % of control

SMILES: Cc1c(C(N)=O)c2ccccc2c2ccccc12
- T/C [9]: 109 % of control
- T/C [10]: 95 % of control
- T/C [11]: 93 % of control and 95 % of control

SMILES: Cc1cc(NC(=S)SCc2ccc(F)cc2)ccc1Br
- T/C [12]: 112 % of control and 122 % of control
- T/C (dose: 50.0 mg/kg/injection, schedule: Q01DX009 (ip), vehicle: suspension in saline): 93 % of control
- T/C [13]: 114 % of control and 115 % of control
- T/C (dose: 100.0 mg/kg/injection, schedule: Q01DX009 (ip), vehicle: suspension in saline): 94 % of control
- T/C (dose: 200.0 mg/kg/injection, schedule: Q01DX009 (ip), vehicle: suspension in saline): 109 % of control

SMILES: NC(=O)Cn1ccnc1[N+](=O)[O-]
- T/C (dose: 12.5 mg/kg/injection, schedule: Q01DX009 (ip), vehicle: water): 93 % of control
- T/C (dose: 25.0 mg/kg/injection, schedule: Q01DX009 (ip), vehicle: water): 99 % of control
- T/C (dose: 50.0 mg/kg/injection, schedule: Q01DX009 (ip), vehicle: water): 90 % of control
- T/C (dose: 100.0 mg/kg/injection, schedule: Q01DX009 (ip), vehicle: water): 118 % of control
- T/C (dose: 200.0 mg/kg/injection, schedule: Q01DX009 (ip), vehicle: water): 107 % of control

SMILES: CCNC(=O)NS(=O)(=O)c1ccc(Sc2ccc(Cl)cc2)nc1
- T/C (dose: 60.0 mg/kg/injection, schedule: Q01DX005 (ip), vehicle: saline with Tween-80): 102 % of control
- T/C (dose: 120.0 mg/kg/injection, schedule: Q01DX005 (ip), vehicle: saline with Tween-80): 105 % of control
- T/C (dose: 240.0 mg/kg/injection, schedule: Q01DX005 (ip), vehicle: saline with Tween-80): 95 % of control

SMILES: COc1cc(C(C)c2cc3c(cc2OCC(=O)O)OCO3)cc(OC)c1OC (configuration not stated)
- T/C (dose: 50.0 mg/kg/injection, schedule: Q01DX005 (ip), vehicle: distilled water + Tween-80): 102 % of control
- T/C (dose: 100.0 mg/kg/injection, schedule: Q01DX005 (ip), vehicle: distilled water + Tween-80): 97 % of control
- T/C (dose: 200.0 mg/kg/injection, schedule: Q01DX005 (ip), vehicle: distilled water + Tween-80): 93 % of control
